# Reference: patent US9345776B2, “Biodegradable polymers with sulfenamide bonds for drug delivery applications” (The University of Iowa Research Foundation, priority 2011, dated 2016)
# Assays:
# [1] = pH=7.5, 37° C.; cited from earlier work
# [2] = Degradation of molecule C with acid in CD3OD, monitored by 1H NMR; type: physicochemical
# Experimental: […] Molecule C (103.5 mg, 436 μmol) was dissolved in 0.94 mL of CD3OD and 0.5 mL (55.1 mg, 232 μmol) was transferred to a NMR tube. […] […] This reaction was too rapid to monitor the kinetics.
# pKa = type: physicochemical; conditions: inferred from partial protonation by benzoic acid in CD3OD
# [3] = Degradation of molecule C under neutral conditions, monitored by 1H NMR; type: physicochemical
# Experimental: Kinetics of the degradation of molecule C under neutral conditions (FIG. 2a). Molecule C (363.2 mg, 1.53 mmol) was dissolved in 3.3 mL of CD3OD, from which 0.5 mL (55.1 mg, 232 μmol) was transferred to a NMR tube. After adding an additional 0.5 mL of CD3OD, ^1H NMR spectra were recorded at room temperature every few days. After 33 days, 15% of molecule C degraded to yield N-benzylmethylamine.
# This procedure was also followed but the NMR tube was added to a heat bath at 40° C.
# For the kinetics in C6D6 at room temperature, a solution of molecule C (33.9 mg, 143 μmol) in 0.7 mL of C6D6 was added to a NMR tube and ^1H NMR spectra were recorded every few days for 30 days.
# Solubility in D2O = type: physicochemical
SMILES,half-life of the decomposition [1],"degradation of molecule C ([2]; five equivalents of benzoic acid, 4 min) [%]","degradation of molecule C ([2]; two molar equivalents of p-toluenesulfonic acid, within four minutes) [%]","degradation of molecule C ([2]; two molar equivalents of trifluoroacetic acid, within four minutes) [%]",pKa of the protonated sulfenamide (pKa),"1H NMR spectrum of molecule C (stability in aprotic solvent) ([3]; C6D6, after 30 days)","degradation of molecule C ([3]; C6D6, room temperature, 30 days) [%]","degradation of molecule C ([3]; CD3OD, 40° C., 33 days) [%]","degradation of molecule C ([3]; CD3OD, room temperature, 33 days, no acid) [%]",solubility in D2O (Solubility in D2O)
C=CCS[S+]([O-])CC=C (stereo not shown) [allicin],approximately 2 days,,,,,,,,,
"CCCCCCSNCCc1ccccc1 [Molecule C, N-Benzylmethyl-hexanesulfenamide]",,51,> 90,> 90,approximately the same pKa as benzoic acid,unchanged,< 3,27,15,not soluble
